Source: patent publication US20190321345A1, “GLUT4 Selective Inhibitors for Cancer Therapy” (Emory University, priority 2016, published 2019)

How the values were obtained:
Format in all cases: cell-based
GLUT1 = target: T1, GLUT1 (Homo sapiens, UniProt P11166); test: 2-DOG transport in HEK293 cells over-expressing GLUT1; conditions: pre-treated 5 minutes, 2-DOG uptake 4 min; read-out: IC50 (inhibition of 2-DOG transport in HEK cells over-expressing GLUT isoforms) GLUT1
T1 construct: expressed in transfected cells; host or cells: HEK293
T1 sequence (P11166 1-492): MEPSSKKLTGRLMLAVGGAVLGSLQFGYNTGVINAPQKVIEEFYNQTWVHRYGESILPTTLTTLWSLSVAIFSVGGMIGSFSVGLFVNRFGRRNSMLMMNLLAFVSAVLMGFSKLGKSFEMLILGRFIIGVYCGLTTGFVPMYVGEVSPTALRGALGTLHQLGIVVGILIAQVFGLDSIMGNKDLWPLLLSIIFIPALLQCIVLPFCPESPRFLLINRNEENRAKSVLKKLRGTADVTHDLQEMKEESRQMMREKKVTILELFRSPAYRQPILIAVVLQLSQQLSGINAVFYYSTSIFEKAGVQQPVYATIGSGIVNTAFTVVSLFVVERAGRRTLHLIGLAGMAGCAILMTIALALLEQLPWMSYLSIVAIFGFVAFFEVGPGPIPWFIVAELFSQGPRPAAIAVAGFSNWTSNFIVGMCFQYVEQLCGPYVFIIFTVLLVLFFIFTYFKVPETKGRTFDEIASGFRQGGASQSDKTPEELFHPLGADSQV
Experimental: Tissue culture plates were pretreated with 25 μg/ml polyethyleneimine (Fluka, catalogue number P3143) in 150 mM NaCl for 20min to let cells adhere. JNN3 cells were subsequently plated and grown to 40-60% confluency in complete RPMI 1640 medium. HEK293 GLUT overexpressing cells were plated at 400,000 cells/ml overnight. Cells were then washed with glucose-free HEPES buffer twice and starved for 30 min. The uptake of 2-[^3H] deoxy-D-glucose (2-DOG) (50 μM) was measured in glucose-free HEPES buffer for 4-6 min at 37° C. Compound 20 (20 μM) was added 5-6 min prior to the addition of glucose depending on the specific assay. For the HEK293 GLUT overexpressing cells, non-specific uptake was measured in non-transfected HEK293 cells containing the shRNA GLUT1 knockdown and was subtracted from the experimental values. Data are plotted as percent uptake relative to unexposed HEK293 cultures. Data were normalized to fit by nonlinear regression analysis using GraphPad Prism software. […]
Glucose transport in HEK293 cells over-expressing GLUT1 or over-expressing GLUT4 or GLUT8 in cells lacking GLUT1 were used to evaluate inhibition of glucose transport. […] Non-specific uptake was measured in nontransfected HEK293 cells containing the shRNA GLUT1 knockdown and was subtracted from the experimental values.

GLUT4 = target: T2, GLUT4 (Homo sapiens, UniProt P14672); test: 2-DOG transport in HEK293 cells over-expressing GLUT4; conditions: pre-treated 5 minutes, 2-DOG uptake 4 min; cells lacking GLUT1; read-out: IC50 (inhibition of 2-DOG transport in HEK cells over-expressing GLUT isoforms) GLUT4
T2 construct: expressed in transfected cells; host or cells: HEK293 stably expressing GLUT1 shRNA
T2 sequence (P14672 1-509): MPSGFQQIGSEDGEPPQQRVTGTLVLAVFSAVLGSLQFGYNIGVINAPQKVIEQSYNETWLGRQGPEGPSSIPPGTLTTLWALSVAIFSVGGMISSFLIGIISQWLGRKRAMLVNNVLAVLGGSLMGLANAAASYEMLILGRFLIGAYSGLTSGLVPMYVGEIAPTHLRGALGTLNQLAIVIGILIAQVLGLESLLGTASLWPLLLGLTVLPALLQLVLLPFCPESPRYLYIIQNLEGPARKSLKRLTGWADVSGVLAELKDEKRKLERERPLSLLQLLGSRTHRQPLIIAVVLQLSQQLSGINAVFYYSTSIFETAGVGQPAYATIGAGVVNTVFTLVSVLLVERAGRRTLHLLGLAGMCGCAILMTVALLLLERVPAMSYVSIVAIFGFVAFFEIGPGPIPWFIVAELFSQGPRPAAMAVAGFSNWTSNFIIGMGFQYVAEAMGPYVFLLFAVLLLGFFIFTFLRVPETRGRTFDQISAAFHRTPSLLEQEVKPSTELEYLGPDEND
Experimental: (§1) Tissue culture plates were pretreated with 25 μg/ml polyethyleneimine (Fluka, catalogue number P3143) in 150 mM NaCl for 20min to let cells adhere. JNN3 cells were subsequently plated and grown to 40-60% confluency in complete RPMI 1640 medium. HEK293 GLUT overexpressing cells were plated at 400,000 cells/ml overnight. Cells were then washed with glucose-free HEPES buffer twice and starved for 30 min. The uptake of 2-[^3H] deoxy-D-glucose (2-DOG) (50 μM) was measured in glucose-free HEPES buffer for 4-6 min at 37° C. Compound 20 (20 μM) was added 5-6 min prior to the addition of glucose depending on the specific assay. For the HEK293 GLUT overexpressing cells, non-specific uptake was measured in non-transfected HEK293 cells containing the shRNA GLUT1 knockdown and was subtracted from the experimental values. Data are plotted as percent uptake relative to unexposed HEK293 cultures. Data were normalized to fit by nonlinear regression analysis using GraphPad Prism software.
(§2) Compound 20 was further screened for GLUT4 selectivity by evaluating inhibition of glucose transport in HEK 293 cells exogenously over-expressing human GLUTs-1, -2, -3, -4, or -8 that also stably express GLUT1 shRNA (except the GLUT1 overexpressing cell line) to knock down endogenous GLUT1.
(§3) Glucose transport in HEK293 cells over-expressing GLUT1 or over-expressing GLUT4 or GLUT8 in cells lacking GLUT1 were used to evaluate inhibition of glucose transport. Cells were pre-treated with compound for 5 minutes followed by evaluation of […] uptake for 4 min at […]. Non-specific uptake was measured in nontransfected HEK293 cells containing the shRNA GLUT1 knockdown and was subtracted from the experimental values.

GLUT8 = target: T3, GLUT8 (Homo sapiens, UniProt Q9NY64); test: 2-DOG transport in HEK293 cells over-expressing GLUT8; conditions: pre-treated 5 minutes, 2-DOG uptake 4 min; cells lacking GLUT1; read-out: IC50 (inhibition of 2-DOG transport in HEK cells over-expressing GLUT isoforms) GLUT8
T3 construct: expressed in transfected cells; host or cells: HEK293 stably expressing GLUT1 shRNA
T3 sequence (Q9NY64 1-477): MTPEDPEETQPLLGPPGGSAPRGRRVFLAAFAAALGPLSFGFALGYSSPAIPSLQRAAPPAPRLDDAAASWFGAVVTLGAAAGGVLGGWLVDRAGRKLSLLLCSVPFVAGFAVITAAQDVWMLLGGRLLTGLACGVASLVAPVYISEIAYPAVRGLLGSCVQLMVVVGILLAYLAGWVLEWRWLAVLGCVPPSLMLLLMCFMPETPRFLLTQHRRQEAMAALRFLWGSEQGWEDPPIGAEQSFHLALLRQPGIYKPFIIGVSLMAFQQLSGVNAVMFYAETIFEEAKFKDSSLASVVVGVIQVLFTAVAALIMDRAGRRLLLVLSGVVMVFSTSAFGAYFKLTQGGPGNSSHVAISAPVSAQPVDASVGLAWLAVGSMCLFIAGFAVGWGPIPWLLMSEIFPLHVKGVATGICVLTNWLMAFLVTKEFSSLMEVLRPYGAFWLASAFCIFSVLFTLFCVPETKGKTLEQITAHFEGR
Experimental: as §1, §2, §3

KMS11-GFP cells = test: Proliferation of KMS11-GFP myeloma cells (Cell Titre Glo); conditions: for EC50: inhibition of proliferation, 72 hours, Cell Titre Glo; for impact on proliferation in KMS11-GFP cells compared with KMS11-GLUT1 cells: isogenic cell line pair
Experimental: (§4) IC50 studies were performed using the CellTiter-Glo assay (Promega, Madison, Wis.). 20,000 cells in 100 ul complete RPMI 1640 medium were plated per well in 96-well plates, with a concentration range of individual compounds. After 72 h incubation, 100 uL Glo reagent were added to each well and luminescence was measured using a Biotek Synergy 4 multimode plate reader. Cell number was assessed by trypan blue standing and an automatic cell counter (Biorad). For cell viability assays 0.125×10^6 cells/mL were treated with the indicated concentration of drug, washed with 1×PBS and evaluated for viability by AnnexinV/DAPI staining and flow cytometry. Data analysis was per-formed with the FCS express version 3 (De Novo software, Los Angeles).
(§5) Compound were selected as a lead based on its low IC50, selectivity for inhibition of glucose transport through GLUT4, and inhibition of the KMS11-GFP cell line proliferation in contrast to the GLUT1 expressing isogenic line. Compounds were assessed in a high-throughput proliferation-based assay using an isogenic MM (KMS11) cell line pair overexpressing GLUT1 or GFP (as a control) (model of screen is depicted in FIG. 2A). […] Isogenic KMS11-GFP/GLUT1 overexpressing myeloma cell lines were treated with a dose range of the indicated test compound for 72 hours followed by evaluation of viable cell number by Cell Titre Glo assay

KMS11-GLUT1 cells = test: Proliferation of KMS11-GLUT1 myeloma cells (Cell Titre Glo); conditions: inhibition of proliferation, 72 hours
Experimental: as §4, §5

| Compound | IC50 (GLUT1) [µM] | IC50 (GLUT4) [µM] | IC50 (GLUT8) [µM] | EC50 (KMS11-GFP cells) [µM] | EC50 (KMS11-GLUT1 cells) [µM] | impact on proliferation in KMS11-GFP cells compared with KMS11-GLUT1 cells (KMS11-GFP cells) |
| --- | --- | --- | --- | --- | --- | --- |
| Oc1cccc(CNCc2ccncc2)c1 [Compound 3, reference compound] | > 100 | 18.9 | > 100 | – | – | – |
| COc1ccc(C(=O)N(Cc2ccncc2)Cc2cccc(OCCc3ccc(C)cc3)c2)cc1 [Compound 7, 4-Methoxy-N-(3-(4-methylphenethoxy)benzyl)-N-(pyridin-4-ylmethyl)benzamide] | – | – | – | 9.1 | 12.7 | – |
| COc1ccc(C(=O)N(Cc2ccncc2)Cc2cccc(OCCc3cccc(C(F)(F)F)c3)c2)cc1 [Compound 8, 4-Methoxy-N-(pyridin-4-ylmethyl)-N-(3-(3-(trifluoromethyl)phenethoxy)benzyl)benzamide] | – | – | – | 8.9 | 15.1 | greater impact on proliferation in KMS11-GFP cells |
| COc1ccc(C(=O)N(Cc2ccncc2)Cc2cccc(OCC3CCOCC3)c2)cc1 [Compound 9, 4-Methoxy-N-(pyridin-4-ylmethyl)-N-(3-((tetrahydro-2H-pyran-4-yl)methoxy)benzyl)benzamide] | – | – | – | 17.7 | 25.8 | greater impact on proliferation in KMS11-GFP cells |
| COc1ccc(C(=O)N(Cc2ccncc2)Cc2cccc(OCCc3ccccc3)c2)cc1 [Compound 10, 4-Methoxy-N-(3-phenethoxybenzyl)-N-(pyridin-4-ylmethyl)benzamide] | – | – | – | 16.9 | 21 | – |
| COc1ccc(C(=O)N(Cc2ccncc2)Cc2cccc(OCC3CCN(C(=O)OC(C)(C)C)CC3)c2)cc1 [Compound 11, Tert-butyl 4-((3-((4-methoxy-N-(pyridin-4-ylmethyl)benzamido)methyl)phenoxy)methyl)piperidine-1-carboxylate] | – | – | – | 5.1 | 4.9 | – |
| COc1ccc(C(=O)N(Cc2ccncc2)Cc2cccc(OCC3CCCCC3)c2)cc1 [Compound 12, N-(3-(cyclohexylmethoxy)benzyl)-4-methoxy-N-(pyridin-4-ylmethyl)benzamide] | – | – | – | 19.7 | 16 | – |
| COc1ccc(C(=O)N(Cc2ccncc2)Cc2cccc(OCCc3ccc(Br)cc3)c2)cc1 [Compound 13, N-(3-(4-bromophenethoxy)benzyl)-4-methoxy-N-(pyridin-4-ylmethyl)benzamide] | – | – | – | 8.4 | 6.5 | – |
| COc1ccc(C(=O)N(Cc2ccncc2)Cc2cccc(OCc3ccc([N+](=O)[O-])cc3)c2)cc1 [Compound 14, 4-Methoxy-N-(3-((4-nitrobenzyl)oxy)benzyl)-N-(pyridin-4-ylmethyl)benzamide] | – | – | – | 15.4 | 11.7 | – |
| COc1ccc(C(=O)N(Cc2ccncc2)Cc2cccc(OCc3ccc(C(F)(F)F)cc3)c2)cc1 [Compound 15] | – | – | – | 14.3 | 16.8 | – |
| COc1ccc(C(=O)N(Cc2ccncc2)Cc2cccc(OCc3ccc(F)cc3)c2)cc1 [Compound 16, N-(3-((4-fluorobenzyl)oxy)benzyl)-4-methoxy-N-(pyridin-4-ylmethyl)benzamide] | – | – | – | 22.7 | 28.6 | – |
| COc1ccc(C(=O)N(Cc2ccncc2)Cc2cccc(OCc3cccc(OC)c3)c2)cc1 [Compound 17, 4-Methoxy-N-(3-((3-methoxybenzyl)oxy)benzyl)-N-(pyridin-4-ylmethyl)benzamide] | > 100 | 10.8 | > 100 | 16.9 | 28.5 | greater impact on proliferation in KMS11-GFP cells |
| COc1ccc(C(=O)N(Cc2ccncc2)Cc2cccc(OCC(=O)c3ccc(Cl)cc3)c2)cc1 [Compound 18, N-(3-(2-(4-chlorophenyl)-2-oxoethoxy)benzyl)-4-methoxy-N-(pyridin-4-ylmethyl)benzamide] | – | – | – | 18.5 | 16.9 | – |
| O=C(c1ccc(Cl)cc1)N(Cc1ccncc1)Cc1cccc(OCCc2ccc(F)cc2)c1 [Compound 19, 4-Chloro-N-(3-(4-fluorophenethoxy)benzyl)-N-(pyridin-4-ylmethyl)benzamide] | – | – | – | 13.1 | 15.6 | – |
| COc1ccc(C(=O)N(Cc2ccncc2)Cc2cccc(OCC(=O)c3cccc(Br)c3)c2)cc1 [Compound 21, N-(3-(2-(3-bromophenyl)-2-oxoethoxy)benzyl)-4-methoxy-N-(pyridin-4-ylmethyl)benzamide] | – | – | – | 18.7 | 21.4 | – |
| COc1ccc(C(=O)N(Cc2ccncc2)Cc2cccc(OCc3cccc([N+](=O)[O-])c3)c2)cc1 [Compound 22, 4-Methoxy-N-(3-((3-nitrobenzyl)oxy)benzyl)-N-(pyridin-4-ylmethyl)benzamide] | – | – | – | 19.6 | 20.6 | – |
